Laboratory results published in paper PMC6765138 (Nucleic Acids Research, 2019).

B1: MtPrpR_(81–486) (Mycobacterium tuberculosis PrpR, Rv1129c, residues 81-486, N-terminal His6-tag) (domain or fragment)
chain: DARLVADLSDVFTDIGVEHAVSGAQIEEFVARMPEVGHSLVAVHRRLRAATEELEGYRSRATAETELPPARPMPFEEVRDFFYDRNNYIHDLDMAAERMFTESGMRTGGLDIQLAELMRDRFGISVVIDDNLPDTAKRRYHPDTKVLRVAHWLMPGQRAFQIATQLALVGQSDLISSIVATDDQLSTEARGVARIGLANYFAGAFLLPYREFHRAAEQLRYDIDLLGRRFGVGFETVCHRLSTLQRPRQRGIPFIFVRTDKAGNISKRQSATAFHFSRVGGSCPLWVVHDAFAQPERIVRQVAQMPDGRSYFWVAKTTAADGLGYLGPHKNFAVGLGCDLAHAHKLVYSTGVVLDDPSTEVPIGAGCKICNRTSCAQRAFPYLGGRVAVDENAGSSLPYSSTEQSV
notes: also called native PrpR_(81–486); wild-type MtPrpR_(81–486); not shown: His6, N-terminal, kept

Key:
MtPrpR81–486 = biological target: T1, MtPrpR81–486 (Mycobacterium tuberculosis, UniProt O06581)
T1 construct: gene prpR

SEC = biological target: the molecule itself; assay: SEC

Molecule | X-ray crystal structure of co-purified ligand; LC-HRMS of extracted ligand (MtPrpR81–486) | stoichiometry N (SEC)
CC(C)(COP(=O)(O)OP(=O)(O)OC[C@H]1O[C@@H](n2cnc3c(N)ncnc32)[C@H](O)[C@@H]1OP(=O)(O)O)[C@@H](O)C(=O)NCCC(=O)NCCS [Coenzyme A] | the predominant CoA was built into all protein chains | –
B1 | – | 4
